{"source": "patent US11934044B2", "about": "“WS12-releasing contact lens” (CooperVision International Limited, priority 2021, dated 2024)", "test": "WS12 leaching from lens into PBS packaging solution during autoclave (HPLC)", "format": "physicochemical", "conditions": "standard contact lens sterilization and storage conditions", "experimental": "Silicone hydrogel contact lenses were prepared by curing the formulation for stenfilcon A in contact lens molds. The cured stenfilcon A was removed from the molds and extracted by immersing them for 215 minutes in ethanol (EtOH) containing WS12 (Tocris Bioscience) in the loading concentrations shown in Table I. The lenses were removed from the EtOH and washed in DI water for approximately 6 minutes, followed by two exchanges of DI water for approximately 30 minutes each. The lenses were transferred to 6 mL glass vials containing 3 mL phosphate buffered saline at pH 7.5 (0.78 wt. % NaCl, 0.05 wt. % sodium phosphate monobasic, and 0.36 wt. % sodium phosphate dibasic), referred to herein as PBS. The vials were sealed and autoclaved.\nEach autoclaved lens was transferred to a vial containing 3 ml EtOH and stored overnight on a 150 rpm shaker at room temperature to extract WS12 from the lens. The EtOH extracts and the PBS in which the lenses were autoclaved were submitted for analysis by HPLC (detection wavelength=250 nm) against calibration standards to determine the average amount of WS12 loaded into each (n=5) and whether the WS12 leaches from the lens during autoclave."}
{"smiles": "COc1ccc(NC(=O)C2CC(C)CCC2C(C)C)cc1", "note": "(stereo not shown) [WS12, N-(4-Methoxyphenyl)-5-methyl-2-(1-methylethyl)cyclohexanecarboxamide]", "values": [{"measurement": "stability of WS12 in hydrogel lens material during sterilization and storage", "value": "without degradation or leaching"}]}
